# Measured values taken from patent US20210238197A1, “NOVEL OXOQUINOLIZINE COMPOUNDS FOR THE TREATMENT AND PROPHYLAXIS OF BACTERIAL INFECTION” (Hoffmann-La Roche Inc., priority 2018, published 2021).
# pIC50: −log10 of the molar value. Like-named read-outs stand apart in the source and are kept apart here.
# Experiments:
# [1] = Cytotoxicity assay (HepG2, CellTiter-Blue); assay type: cell-based; conditions: human; HepG2 cells, 3 days treatment; >100 = detection limit
# Description: The cytotoxicity of compounds of present invention was assessed by HepG2 assay. HepG2 cells (ATCC RB-8065™) were seeded into 96-well plates (1.2×10^4 cells per well) and treated with compounds for 3 days, cell viability was measured at day 3 post compound treatment using the CellTiter-Blue® Cell Viability Assay (Promega, Cat. No. G8082). […], of Cell titer blue buffer were added to each well of the cells, which were incubated for 3 hours at 37° C., and the fluorescence value was measured by a plate reader (Molecular Device SpectraMax M2). The CC50 value of each compound is plotted with GraphPad Prism using four parameter logistic equation.
# [2] = tested on: multiple species and strains; experiment: microbe, parasite or virus in culture; set-up: MIC S9 / MIC S7 / MIC S11 / MIC S8 / MIC S10: unit not given beside the values; conditions: for MIC S9: E. coli ATCC 35218
# Description: The MIC of antibacterial compounds against multiple species and strains was determined using the broth microdilution method according to M07-A10 Clinical and Laboratory Standards Institute (CLSI) guidelines (CLSI (2015) Methods for dilution antimicrobial susceptibility tests for bacteria that grow aerobically; Approved Standard, Tenth Edition. CLSI Document M7-A10 (ISBN 1-56238-987-4). Wayne, Pa.: Clinical and Laboratory Standards Institute, 19087, USA.). In short, bacterial strain preparation was performed on D1 and D2. […] 5-10 well-isolated colonies of similar morphology were selected and re-streaked onto fresh agar plates using sterile loops and incubated for 20-24 hr at 35±2° C. Bacterial strains were subcultured two times to ensure fresh inoculums for MIC screening. […] Alternatively, 1-2 colonies were transferred into 500 μL of saline and OD600 was adjusted to ˜0.1 using an OD meter. Bacterial inoculum was diluted by 1:280 for Gram-positive strains and 1:400 for Gram-negative strains into corresponding medium broth (CAMHB, CAMHB+3% lysed horse blood, HTM) (e.g. 35.6 μL of inoculum into 10 mL of CAMHB or 25 μL of inoculum into 10 mL of CAMHB). For compound plate, the compound stock solutions were prepared in 100% DMSO on the day of MIC screening and used immediately. Compound stock concentration=[(highest testing concentration)×100 μL/2 μL] (e.g. if the required highest testing concentration is 64 μg/mL in assay plates, stock concentration=64 μg/mL×100 μL/2 μL=3.2 mg/mL). […] 1 μL of each well was transferred in a new MTP, which served as the test plate by subsequent inoculation. The bacterial suspension prepared above is dispensed at 98 μL/well within 15 minutes after preparation. Negative controls (lack of bacterial cells) and growth control wells (lack of compound) were included in all plates. MTPs were incubated for 18-24 hours at 35±2° C. in ambient air. The MIC was recorded and CFUs were calculated on Day 4. The assay plate was placed on the top of MIC reader, and the magnification mirror was adjusted to read each wells, recording growth status as raw data. Photo images of each assay plates were recorded using Q Count 530 (Spiral Biotech). The MIC value of each compound, expressed as μg/mL, was determined as the lowest concentration required for complete growth inhibition (no visible growth).
# [3] = tested on: S. aureus (ATCC29213); experiment: 50% growth inhibitory concentration (IC50) determination assay, S. aureus; assay type: cell-based; conditions: Iso-Sensitest broth, growth by OD 600 nm over 16 h, <0.098 = detection limit
# Description: (§1) The in vitro antimicrobial activity of the compounds against S. aureus (ATCC29213), K. pneumoniae (ATCC10031), and A. baumannii (ATCC17978), was determined according to the following procedure: The assay used a 10-points Iso-Sensitest broth medium to measure quantitatively the in vitro activity of the compounds against S. aureus ATCC29213, K. pneumoniae ATCC 10031, and A. baumannii ATCC17978. Stock compounds in DMSO were serially two-fold diluted (range from 50 to 0.097 μM final concentration) in 384 wells microtiter plates and inoculated with 49 μL the bacterial suspension in Iso-Sensitest broth medium to have a final cell concentration of ˜5×10^5 CFU/mL in a final volume/well of 50 μL/well. Microtiter plates were incubated at 35±2° C. Bacterial cell growth was determined with the measurement of optical density at λ=600 nm each 20 minutes over a time course of 16 h.
# [4] = tested on: K. pneumoniae (ATCC10031); experiment: 50% growth inhibitory concentration (IC50) determination assay, K. pneumoniae; assay type: cell-based; conditions: Iso-Sensitest broth, growth by OD 600 nm over 16 h, <0.098 = detection limit
# Description: as §1
# [5] = tested on: A. baumannii (ATCC17978); experiment: 50% growth inhibitory concentration (IC50) determination assay, A. baumannii; assay type: cell-based; conditions: Iso-Sensitest broth, growth by OD 600 nm over 16 h, <0.098 = detection limit
# Description: as §1
# [6] = Acinetobacter baumannii, ATCC19606, read-out: MIC S1, A. baumannii ATCC 19606
# [7] = Acinetobacter baumannii, ATCC51432, read-out: MIC S2, A. baumannii ATCC 51432
# [8] = Acinetobacter baumannii, ATCCBAA747, read-out: MIC S3, A. baumannii ATCC BAA-747
# [9] = Escherichia coli, ATCC25922, read-out: MIC S11, E. coli ATCC 25922
# [10] = Escherichia coli, ATCCBAA2340, read-out: MIC S10, E. coli ATCC BAA-2340
# [11] = Klebsiella pneumoniae, ATCC10031, read-out: MIC S4, K. pneumoniae ATCC 10031
# [12] = Klebsiella pneumoniae, ATCC700603, read-out: MIC S5, K. pneumoniae ATCC 700603
# [13] = Klebsiella pneumoniae, ATCCBAA2146, read-out: MIC S6, K. pneumoniae ATCC BAA-2146
# [14] = Pseudomonas aeruginosa, ATCC27853, read-out: MIC S7, P. aeruginosa ATCC 27853
# [15] = Pseudomonas aeruginosa, ATCCBAA2113, read-out: MIC S8, P. aeruginosa ATCC BAA-2113
# [16] = Staphylococcus aureus, ATCC29213
# [17] = Klebsiella pneumoniae, ATCC10031
# [18] = Acinetobacter baumannii, ATCC17978
Structure (SMILES),CC50 at 3 days [1] [nM],"MIC [2, 6] [µg/mL]","MIC [2, 7] [µg/mL]","MIC [2, 8] [µg/mL]",MIC S9 [2],"MIC [2, 9] [µg/mL]","MIC [2, 10] [µg/mL]","MIC [2, 11] [µg/mL]","MIC [2, 12] [µg/mL]","MIC [2, 13] [µg/mL]","MIC [2, 14] [µg/mL]","MIC [2, 15] [µg/mL]","pIC50 [3, 16]","pIC50 [4, 17]","pIC50 [5, 18]",also measured
"CNc1cc(F)c(F)c2c1[nH]c1ncc(-c3ccc4ccc(C(=O)O)c(=O)n4c3)c(N3CC4[C@H](CC[C@H]4N(C)C)C3)c12 (stereo partly drawn) [Example 1.05, 7-[4-[cis-(4R)-4-(dimethylamino)-3,3a,4,5,6,6a-hexahydro-1H-cyclopenta[c]pyrrol-2-yl]-5,6-difluoro-8-(methylamino)-9H-pyrido[2,3-b]indol-3-yl]-4-oxo-quinolizine-3-carboxylic acid]",15500,,,,,,,,,,,,,,,
"CNc1cc(F)c(Cl)c2c1[nH]c1ncc(-c3ccc4ccc(C(=O)O)c(=O)n4c3)c(N3CC[C@]4(C[C@H]4N)C3)c12 [Example 5.01B, 7-(4-((1R,3S)-1-amino-5-azaspiro[2.4]heptan-5-yl)-5-chloro-6-fluoro-8-(methylamino)-9H-pyrido[2,3-b]indol-3-yl)-4-oxo-4H-quinolizine-3-carboxylic acid]",> 100000,0.516,1.03,1.03,0.516,0.097,0.516,0.032,4.13,4.13,2.07,2.07,,,,
"CNc1cc(F)c(Cl)c2c1[nH]c1ncc(-c3ccc4ccc(C(=O)O)c(=O)n4c3)c(N3CC[C@@]4(C[C@@H]4N)C3)c12 (single isomer, unassigned) [Example 5.01A]",> 100000,1.03,1.03,1.03,0.516,0.194,0.516,0.032,2.07,4.13,2.07,2.07,,,,
"CNc1cc(F)c(Cl)c2c1[nH]c1ncc(-c3ccc4ccc(C(=O)O)c(=O)n4c3)c(N3CC[C@@]4(C[C@H]4N)C3)c12 [Example 5.01C, 7-(4-((1R,3R)-1-amino-5-azaspiro[2.4]heptan-5-yl)-5-chloro-6-fluoro-8-(methylamino)-9H-pyrido[2,3-b]indol-3-yl)-4-oxo-4H-quinolizine-3-carboxylic acid]",> 100000,0.516,0.258,0.516,0.258,0.194,0.258,0.032,2.07,2.07,1.03,2.07,> 7.01,> 7.01,> 7.01,
"CNc1cc(F)cc2c1[nH]c1ncc(-c3ccc4ccc(C(=O)O)c(=O)n4c3)c(N3CCOCC3)c12 [Example 1.02, 7-(6-fluoro-8-(methylamino)-4-morpholino-9H-pyrido[2,3-b]indol-3-yl)-4-oxo-4H-quinolizine-3-carboxylic acid]",24100,,,,,,,,,,,,6.80,> 7.01,> 7.01,
"CNc1cc(F)c(C#N)c2c1[nH]c1ncc(-c3ccc4ccc(C(=O)O)c(=O)n4c3)c(N3CC4C(N(C)C)CO[C@@H]4C3)c12 (stereo partly drawn) [Example 1.15, 7-[5-cyano-4-[cis-3-(dimethylamino)-2,3,3a,4,6,6a-hexahydrofuro[2,3-c]pyrrol-5-yl]-6-fluoro-8-(methylamino)-9H-pyrido[2,3-b]indol-3-yl]-4-oxo-quinolizine-3-carboxylic acid]",75400,,,,,,,,,,,,6.99,> 7.01,> 7.01,
"CNc1cc(F)c(F)c2c1[nH]c1ncc(-c3ccc4ccc(C(=O)O)c(=O)n4c3)c(N3CC[C@@]4(C[C@@H]4N)C3)c12 (single isomer, unassigned) [Example 4.01A]",,0.445,0.445,0.592,0.297,0.111,0.297,0.074,2.37,2.37,0.592,1.19,> 7.01,> 7.01,> 7.01,
"CNc1cc(F)c(F)c2c1[nH]c1ncc(-c3ccc4ccc(C(=O)O)c(=O)n4c3)c(N3CC[C@]4(C[C@H]4N)C3)c12 [Example 4.01C, 7-(4-((1R,3S)-1-amino-5-azaspiro[2.4]heptan-5-yl)-5,6-difluoro-8-(methylamino)-9H-pyrido[2,3-b]indol-3-yl)-4-oxo-4H-quinolizine-3-carboxylic acid]",> 100000,0.592,0.592,1.19,0.592,0.222,1.19,0.074,2.37,2.37,1.19,2.37,> 7.01,> 7.01,> 7.01,
"CNc1cc(F)c(F)c2c1[nH]c1ncc(-c3ccc4ccc(C(=O)O)c(=O)n4c3)c(N3CC[C@@]4(C[C@H]4N)C3)c12 [Example 4.01B, 7-(4-((1R,3R)-1-amino-5-azaspiro[2.4]heptan-5-yl)-5,6-difluoro-8-(methylamino)-9H-pyrido[2,3-b]indol-3-yl)-4-oxo-4H-quinolizine-3-carboxylic acid]",> 100000,,,,,,,,,,,,> 7.01,> 7.01,> 7.01,
"CNc1cc(F)c(C#N)c2c1[nH]c1ncc(-c3ccc4ccc(C(=O)O)c(=O)n4c3)c(N3C[C@H]4CCN(C)[C@H]4C3)c12 (single isomer, unassigned) [Example 1.16, 7-[4-[cis-1-methyl-2,3,3a,4,6,6a-hexahydropyrrolo[3,4-b]pyrrol-5-yl]-5-cyano-6-fluoro-8-(methylamino)-9H-pyrido[2,3-b]indol-3-yl]-4-oxo-quinolizine-3-carboxylic acid]",,,,,0.216,,,,,,,,,,,pIC50 [3]: > 7.01; pIC50 [4]: > 7.01; pIC50 [5]: > 7.01; MIC S1 ([2]; A. baumannii ATCC 19606): 0.431; MIC S2 ([2]; A. baumannii ATCC 51432): 0.216; MIC S3 ([2]; A. baumannii ATCC BAA-747): 0.216; MIC S11 ([2]; E. coli ATCC 25922): 0.040; MIC S10 ([2]; E. coli ATCC BAA-2340): 0.216; MIC S4 ([2]; K. pneumoniae ATCC 10031): 0.027; MIC S5 ([2]; K. pneumoniae ATCC 700603): 1.724; MIC S6 ([2]; K. pneumoniae ATCC BAA-2146): 1.724; MIC S7 ([2]; P. aeruginosa ATCC 27853): 0.431; MIC S8 ([2]; P. aeruginosa ATCC BAA-2113): 3.447
